Patent US10765114B2, “4-amino-6-(pyridyl and 2-substitutedphenyl)-picolinates and 6-amino-2-(pyridyl and 2-substitutedphenyl)-pyrimidine-4-carboxylates and their use as herbicides” (Dow AgroSciences LLC, priority 2013, dated 2020)
Where two headings read alike, the source gives them in different places.

Experiments:
[1] = tested on: Key Grass and Sedge Weeds as well as Grass Crops; test: Post-Emergent Test II (Table 6); format: in vivo; conditions: post-emergence, 336 h, 14 days after application; for pest or weed control at 70 g/ha: 70 g ai/ha; for pest or weed control at 140 g/ha: 140 g ai/ha
Outline: (§1)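 Visual injury ratings (0 = no injury, 100 = complete kill) were taken 14 days after treatment relative to untreated plants. Seedlings at the first or second true leaf stage received an overhead spray at 187 L/ha, and solvent-blank sprayed plants served as controls.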

[2] = tested on: Key Broadleaf Weed and Crop Species; test: Post-Emergent Test II (Table 5); format: in vivo; conditions: post-emergence, 336 h; for pest or weed control at 70 g/ha: application rate 70 (kg ai/ha; footnote: g ai/ha); for pest or weed control at 140 g/ha: application rate 140 (kg ai/ha; footnote: g ai/ha)
Outline: as §1

[3] = CYPSS, read-out: Visual Growth Reduction (%) 14 Days After Application CYPSS
[4] = DIGSA: crabgrass (Digitaria sanguinalis), read-out: Visual Growth Reduction (%) 14 Days After Application DIGSA
[5] = ECHSS, read-out: Visual Growth Reduction (%) 14 Days After Application ECHSS
[6] = ORYSS (crop), read-out: Visual Growth Reduction (%) 14 Days After Application ORYSS
[7] = SETFA: giant foxtail (Setaria faberi), read-out: Visual Growth Reduction (%) 14 Days After Application SETFA
[8] = SORVU: grain sorghum (Sorghum vulgare), read-out: Visual Growth Reduction (%) 14 Days After Application SORVU
[9] = TRZSS (crop), read-out: Visual Growth Reduction (%) 14 Days After Application TRZSS
[10] = ZEAMX: maize, corn (Zea mays), read-out: Visual Growth Reduction (%) 14 Days After Application ZEAMX
[11] = Abutilon theophrasti, ABUTH: velvetleaf (Abutilon theophrasti), read-out: Visual Growth Reduction (%) 14 Days After Application ABUTH
[12] = Amaranthus retroflexus, AMARE: redroot pigweed (Amaranthus retroflexus), read-out: Visual Growth Reduction (%) 14 Days After Application AMARE
[13] = Brassica napus, BRSSS: oilseed rape, canola (Brassica napus), read-out: Visual Growth Reduction (%) 14 Days After Application BRSSS
[14] = Chenopodium album, CHEAL: lambsquarters (Chenopodium album), read-out: Visual Growth Reduction (%) 14 Days After Application CHEAL
[15] = Euphorbia heterophylla, EPHHL: wild poinsettia (Euphorbia heterophylla), read-out: Visual Growth Reduction (%) 14 Days After Application EPHHL
[16] = Helianthus annuus, HELAN: sunflower (Helianthus annuus), read-out: Visual Growth Reduction (%) 14 Days After Application HELAN
[17] = Viola tricolor, VIOTR: wild pansy (Viola tricolor), read-out: Visual Growth Reduction (%) 14 Days After Application VIOTR

SMILES | pest or weed control at 70 g/ha [1, 3] [%] | pest or weed control at 140 g/ha [1, 3] [%] | pest or weed control at 70 g/ha [1, 4] [%] | pest or weed control at 140 g/ha [1, 4] [%] | pest or weed control at 70 g/ha [1, 5] [%] | pest or weed control at 140 g/ha [1, 5] [%] | pest or weed control at 70 g/ha [1, 6] [%] | pest or weed control at 140 g/ha [1, 6] [%] | pest or weed control at 70 g/ha [1, 7] [%] | pest or weed control at 140 g/ha [1, 7] [%] | pest or weed control at 70 g/ha [1, 8] [%] | pest or weed control at 140 g/ha [1, 8] [%] | pest or weed control at 70 g/ha [1, 9] [%] | pest or weed control at 140 g/ha [1, 9] [%] | pest or weed control at 70 g/ha [1, 10] [%] | pest or weed control at 70 g/ha [2, 11] [%] | pest or weed control at 140 g/ha [2, 11] [%] | pest or weed control at 70 g/ha [2, 12] [%] | pest or weed control at 140 g/ha [2, 12] [%] | pest or weed control at 70 g/ha [2, 13] [%] | further results
COC(=O)c1nc(-c2ccc(Cl)c(Cl)c2Cl)c(F)c(N)c1Cl [Compound 12] | 0 to 29 | 45 to 59 | 30 to 44 | 45 to 59 | 0 to 29 | 0 to 29 | 0 to 29 | 0 to 29 | 45 to 59 | 45 to 59 | 0 to 29 | 30 to 44 | 0 to 29 | 0 to 29 | 75 to 84 | 85 to 94 | 85 to 94 | 95 to 100 | 95 to 100 | 75 to 84 | pest or weed control at 140 g/ha [2, 13]: 75 to 84%; pest or weed control at 70 g/ha [2, 14]: 85 to 94%; pest or weed control at 140 g/ha [2, 14]: 85 to 94%; pest or weed control at 70 g/ha [2, 15]: 75 to 84%; pest or weed control at 140 g/ha [2, 15]: 75 to 84%; pest or weed control at 70 g/ha [2, 16]: 85 to 94%; pest or weed control at 140 g/ha [2, 16]: 85 to 94%; pest or weed control at 70 g/ha [2, 17]: 0 to 29%; pest or weed control at 140 g/ha [2, 17]: 0 to 29%; melting point: 195 to 196 °C
COC(=O)c1nc(-c2ccc(F)c(F)c2C)cc(N)c1Cl [Compound 69] | 45 to 59 | 95 to 100 | 0 to 29 | 0 to 29 | 0 to 29 | 0 to 29 | 0 to 29 | 0 to 29 | 0 to 29 | 0 to 29 | 0 to 29 | 0 to 29 | 0 to 29 | 0 to 29 | 0 to 29 | 95 to 100 | 95 to 100 | 95 to 100 | 95 to 100 | 85 to 94 | pest or weed control at 140 g/ha [1, 10]: 0 to 29%; pest or weed control at 140 g/ha [2, 13]: 95 to 100%; pest or weed control at 70 g/ha [2, 14]: 95 to 100%; pest or weed control at 140 g/ha [2, 14]: 95 to 100%; pest or weed control at 70 g/ha [2, 15]: 0 to 29%; pest or weed control at 140 g/ha [2, 15]: 0 to 29%; pest or weed control at 70 g/ha [2, 16]: 85 to 94%; pest or weed control at 140 g/ha [2, 16]: 85 to 94%; pest or weed control at 70 g/ha [2, 17]: 0 to 29%; pest or weed control at 140 g/ha [2, 17]: 0 to 29%; melting point: 120 to 126 °C
COC(=O)c1nc(-c2ccc(Cl)nc2F)c(F)c(N)c1Cl [Compound 45] | 95 to 100 | 95 to 100 | 60 to 74 | 75 to 84 | 75 to 84 | 85 to 94 | 0 to 29 | 0 to 29 | 45 to 59 | 45 to 59 | 30 to 44 | 45 to 59 | 0 to 29 | 0 to 29 | 0 to 29 | 85 to 94 | 95 to 100 | 95 to 100 | 95 to 100 | 0 to 29 | pest or weed control at 140 g/ha [1, 10]: 0 to 29%; pest or weed control at 140 g/ha [2, 13]: 30 to 44%; pest or weed control at 70 g/ha [2, 14]: 95 to 100%; pest or weed control at 140 g/ha [2, 14]: 95 to 100%; pest or weed control at 70 g/ha [2, 15]: 30 to 44%; pest or weed control at 140 g/ha [2, 15]: 45 to 59%; pest or weed control at 70 g/ha [2, 16]: 95 to 100%; pest or weed control at 140 g/ha [2, 16]: 95 to 100%; pest or weed control at 70 g/ha [2, 17]: 75 to 84%; pest or weed control at 140 g/ha [2, 17]: 95 to 100%; melting point: 190 to 191 °C
COC(=O)c1nc(-c2ccc(C(F)(F)F)nc2)nc(N)c1OC [Compound 43, methyl 6-amino-5-methoxy-2-(6-(trifluoromethyl)pyridin-3-yl)pyrimidine-4-carboxylate] | 0 to 29 | 60 to 74 | 30 to 44 | 60 to 74 | 0 to 29 | 0 to 29 | 0 to 29 | 0 to 29 | 0 to 29 | 0 to 29 | 0 to 29 | 0 to 29 | 0 to 29 | 0 to 29 | 0 to 29 | 0 to 29 | 0 to 29 | 30 to 44 | 60 to 74 | 30 to 44 | pest or weed control at 140 g/ha [1, 10]: 0 to 29%; pest or weed control at 140 g/ha [2, 13]: 45 to 59%; pest or weed control at 70 g/ha [2, 14]: 0 to 29%; pest or weed control at 140 g/ha [2, 14]: 0 to 29%; pest or weed control at 70 g/ha [2, 15]: 30 to 44%; pest or weed control at 140 g/ha [2, 15]: 60 to 74%; pest or weed control at 70 g/ha [2, 16]: 0 to 29%; pest or weed control at 140 g/ha [2, 16]: 30 to 44%; pest or weed control at 70 g/ha [2, 17]: 0 to 29%; pest or weed control at 140 g/ha [2, 17]: 0 to 29%; melting point: 148 to 149 °C
